Values quoted from earlier work, collected in publication PMC6966182 (CPT: Pharmacometrics & Systems Pharmacology, 2019).
Read-outs that look alike come from different tables or passages of the source.

Assays:
[1] = absorption rate constant, SimCYP input
PBMC = conditions: SimCYP input
[2] = not given; remark: listed apart in the source
[3] = not given; remark: listed apart in the source
[4] = not given; remark: listed apart in the source
OAT3 = conditions: read-out: OAT3 Transporter (K i) (renal); SimCYP input
HIV = conditions: TFV‐DP concentration in PBMC
[5] = not given; remark: listed apart in the source
[6] = SD TFV + PRO, healthy volunteers, GM (95% confidence interval)
[7] = SD TFV–PRO, healthy volunteers, GM (95% confidence interval)

For C[C@H](Cn1cnc2c(N)ncnc21)OCP(=O)(O)O [TFV, tenofovir], the “TFV in circulation available for transporter‐mediated secretion” value is given as 20–30%, the bioavailability is given as ~ 25% and the “increase in TFV systemic exposure with food” value (TDF given with high‐fat or light meals, ref Other studies) is given as ~ 35%. For the same compound, the k a [1] was 1.03 1/h11, the “Efflux Clint,t (PBMC additional organ)” value (PBMC) was 1.288 µL/minute11, 12 and the “Uptake J max (PBMC additional organ)” value (PBMC) was 10.44 pmol/minute/whole organ11, 12. For the same compound, the “Uptake K m (PBMC additional organ)” value (PBMC) was 0.355 µM11, 12, the “fraction unbound (f u)” value [2] was > 0.9 and the “AUC0‐INF OBS” value [3, 6] was 6,349 (5,598–7,200) ng • hour/mL. The “Cmax OBS” value [3, 6] was 538 (494–585) ng/mL, the “AUC0‐INF OBS” value [3, 7] was 3,973 (3,576–4,415) ng • hour/mL and the “CLr OBS” value [3, 7] was 15.4 (12.2–19.4) L/hour. The “Cmax OBS” value [3, 7] was 529 (451–620) ng/mL, the “increase in single‐dose TFV overall plasma exposure (AUC0‐INF)” value ([3]; in the presence of 2 g PRO, fasted healthy volunteers, as predicted) was 60% and the “change in TFV Cmax” value ([3]; in the presence of 2 g PRO, single dose, as predicted) was “nearly unchanged”.

In the case of CCCN(CCC)S(=O)(=O)c1ccc(C(=O)O)cc1 [PRO, probenecid], the maximum tolerated dose [4] is listed as 2 g and the Ki (OAT3) is listed as […].

In the case of CC(Cn1cnc2c(N)ncnc21)OCP(=O)(O)OP(=O)(O)OP(=O)(O)O (stereo in doubt) [TFV‐DP, tenofovir di‐phosphate], the EC90 (HIV) is listed as 16 fmol/10^6 cells, the “increase at the intracellular level with PRO” value ([5]; at 24 hours) is listed as ~ 30% and the “accumulation of TFV‐DP in PBMCs” value ([5]; daily TDF administration) is listed as “greater than eightfold”.
